# “Also recorded” adds a separate entry of the source.
# Key:
# Format in all cases: in vivo
# [1] = tested on: CS-challenged skeletal muscle (EDL); assay: Rat compartment syndrome model, intravital video microscopy (IVVM) of EDL muscle
# Source text: (§1) The experimental protocol was approved by the Council on Animal Care of the University of Western Ontario, and has been previously described in detail. Briefly, male Wistar rats (body weight 180-250 g) were anesthetized by inhalational isoflurane (5% induction, 2% maintenance) in 1:1 oxygen/nitrogen mixture. Left carotid artery was cannulated to allow for the monitoring of systemic blood pressure, fluid administration and blood sampling.
# (§2) Compartment pressure monitoring probe (Synthes, Westchester Pa.) was inserted into the posterior compartment via gauge 16 angiocatheter (BD), while gauge 24 angiocatheter (BD) attached to an IV line was placed into the anterior compartment of the rat hind limb. CS was induced by an infusion of isotonic saline, leading to an elevation of intra-compartmental pressure (ICP) to 30 mmHg. Elevated ICP was maintained for 2 hours. Fasciotomy was performed to decompress the hind limb compartments; the muscles were allowed to reperfuse for 45 minutes, followed by intravital video microscopy.
# (§3) Rats were randomly assigned to one of four experimental groups: sham (n=4), CS (n=4), CS+CORM-3 (n=8) and CS+iCORM-3 (n=8).
# The extensor digitorum longus (EDL) muscle was dissected to the level of its distal tendon, which was tied with a suture and cut from its bony insertion. The animal was transferred onto the stage of an inverted microscope (Nikon™); the EDL was reflected into a saline bath containing 5 μg/ml each of the fluorescent vital dyes bisbenzimide (BB; exc. 343 nm, em. 483 nm) and ethidium bromide (EB; exc. 482 nm, em. 616 nm). BB stains the nuclei of all cells while EB stains the nuclei of only those cells with damaged cell membrane. Thus, EB/BB ratio provided an index of tissue injury.
# Microvascular perfusion and leukocytes within the post-capillary venules were recorded by translumination with 20× and 40× objectives, respectively, in five adjacent fields of view. Fluorescence microscopy was used to visualize the BB and EB from the same fields of view that had been selected for the measurement of capillary perfusion. At the conclusion of the experiment, rats were euthanized by an overdose of anesthetic agent.
# Capillary perfusion was assessed by counting the number of continuously-perfused (CPC), intermittently-perfused (IPC) and non-perfused (NPC) capillaries that crossed three parallel lines drawn perpendicular to the capillary axis on the video monitor, and was expressed as % of total capillaries. Tissue injury was assessed by counting the number of EB- and BB-labelled nuclei, and expressed as EB/BB ratio. Leukocyte activation was assessed by counting the numbers of rolling and adherent leukocytes in post-capillary venules and expressed per 1000 μm^2. Venular area was measured using ImageJ (NIH, Bethesda, Md.). A leukocyte was considered adherent if it remained stationary for at least 30 seconds, and a cell was considered rolling if it remained in contact with the wall of the vessel during its movement.
# [2] = Systemic leukocyte counts, hemoglobin and carboxyhemoglobin in rat CS model
# Source text: as §1, §2, §3
# Two hours of elevated ICP were followed by fasciotomy, injection of CORM-3 (or iCORM-3) and 45 min reperfusion. CS-associated rise in systemic leukocytes was reversed by CORM-3 application (*p<0.01 from sham; †p<0.05 from CS+iCORM-3). CORM-3 and iCORM-3 caused no changes in systemic levels of COHb. LKC, leukocyte counts; COHb, carboxyhemoglobin.
# [3] = tested on: TNF-α; assay: Serum TNF-α (ELISA) in rat CS model; conditions: 30 and 45 minutes post-fasciotomy, 10 mg/kg IP
# Experimental: TNF-α levels were measured from arterial blood samples drawn at 9 time points: (1) baseline, (2) 15 minutes into CS, (3) 45 minutes into CS, (4) 90 minutes into CS, (5) 2 hours into CS-just prior to fasciotomy and CORM-3 (or iCORM-3) injection, (6) 10 minutes post-fasciotomy, (7) 20 minutes post fasciotomy, (8) 30 minutes post fasciotomy, (9) 45 minutes post fasciotomy, just before IVVM. TNF-α was assessed using enzyme-linked immunosorbent assay (ELISA, Pierce Biotechnology, c/o Thermo Scientific, Rockford, Ill.) according to manufacturer's instructions. The TNF-α ELISA was sensitive to less than […].
# [4] = tested on: compartment syndrome; assay: Porcine model of compartment syndrome: PMN activation and capillary perfusion (IVVM); conditions: pig, 6 h elevated ICP, 10 mg/kg
# Experimental: (§4) Following the basic surgical setup (anesthesia, intubation, auricular vein and femoral artery catheterization), the animals undergo 6 hours of elevated intra-compartmental pressure (i.e. CS), followed by fasciotomy and reperfusion. The time interval was chosen in order to closely mimic the condition in human patients. CORM-3 (or iCORM-3), 10 mg/kg of animal is applied prior to fasciotomy. Blood is sampled at various time intervals (baseline, 1 hr CS, 2 hr CS, 3 hr CS, 4 hr CS, 5 hr CS, 6 hr CS/fasciotomy, and every 10-15 min post-fasciotomy, for a total of 20 samples per animal), in order to monitor leukocyte activation and serum TNF-α levels. IVVM is carried out at 3 hours post-fasciotomy.
# [5] = tested on: TNF-α; assay: Serum TNF-α time course in porcine model of CS; conditions: pig, 6 h elevated ICP, 10 mg/kg, 3 h reperfusion
# Experimental: as §4
# [6] = tested on: compartment syndrome; assay: CatWalk gait assessment in rats after CS without fasciotomy; conditions: rat, 180 min CS, no fasciotomy
# Experimental: Animal preparation and synthesis of CORM-3 were similar to Example 3.
# Complete inducement of CS occurred at about 180 minutes post induction. The animals were injected at 180 minutes and every 24 hours thereafter.
# Quantitative assessment of footfalls and gait in the rats was assessed using CatWalk™, which a system for quantitative assessment of footfalls and gait in rats and mice.
# [7] = rat CS model, 10 mg/kg IP at fasciotomy
# [8] = rat CS model, CORM-3 versus control
# [9] = rat, 2 h elevated ICP, fasciotomy, 10 mg/kg IP, 45 min reperfusion, mean±SEM
smiles,measurement,setting,value
"NCC(=O)O.[C-]#[O+].[C-]#[O+].[C-]#[O+].[Cl][Ru] [CORM-3, tricarbonylchloro-glycinate-ruthenium(II)]",Effect on leukocyte adhesion within post-capillary venules,"[1]; rat CS model, 10 mg/kg IP",prevent leukocyte adhesion
same,Effect on leukocyte rolling,"[1]; rat CS model, 10 mg/kg IP",no effect
same,Effect on CS-associated microvascular perfusion changes,[1]; [7],reversed
same,Effect on CS-associated tissue injury,[1]; [7],reversed
same,Decrease in leukocyte adherence (leukocyte activation),[1]; [8],8 fold
same,Decrease in tissue injury,[1]; [8],4 fold
same,Leukocyte adherence in post-capillary venules,[1]; [9],0.6±0.3 leukocytes/30 s/1000 μm^2
same,Leukocyte rolling in post-capillary venules,[1]; [9],3.0±0.8 leukocytes/30 s/1000 μm^2
same,"Muscle injury, EB/BB ratio",[1]; [9],0.07±0.01
same,Continuously-perfused capillaries (CPC),"[1]; rat, % of total capillaries, 2 h elevated ICP, fasciotomy, 10 mg/kg IP, 45 min reperfusion, mean±SEM",57±5%
same,Effect on COHb levels,"[2]; rat CS model, 10 mg/kg IP",no effect
same,Effect on CS-associated rise in systemic leukocyte counts,[2]; [7],decrease the severity of this response
same,COHb (carboxyhemoglobin),[2]; [9],1.6 ± 0.1%
same,Hemoglobin,[2]; [9],129.5 ± 2.7 g/L
same,LKC (systemic leukocyte counts),[2]; [9],2.3 ± 0.2^† Units × 10^9/L
same,Serum TNF-α in post-fasciotomy/reperfusion period,[3],effectively prevented; also recorded: reversed
same,Continuously-perfused capillaries (CPC),[4]; IVVM 3 h post-fasciotomy,increase
same,Intermittently-perfused capillaries (IPC),[4]; IVVM 3 h post-fasciotomy,decrease
same,Non-perfused capillaries (NPC),[4]; IVVM 3 h post-fasciotomy,decrease
same,Number of activated PMNs post-fasciotomy,"[4]; fasciotomy, versus iCORM-3",significant decrease
same,Serum TNF-α release associated with post-fasciotomy/reperfusion,[5],prevented any TNF-α release
same,Static and dynamic gait functional parameters (CatWalk),"[6]; 10 mg/kg IP at 180 min and every 24 h, relative to iCORM-3",significantly improved
same,Weight bearing parameters (CatWalk),[6]; multi dose 10 mg/kg IP,improvement

# Reference: US9421222B2, “Treatment of compartment syndrome” (LONDON HEALTH SCIENCES CENTRE RESEARCH INC., priority 2013, dated 2016)
